{
  "source": "patent US20220288001A1",
  "about": "“CREATINE FOR IMMUNOTHERAPY” (The Regents of the University of California, priority 2019, published 2022)",
  "key": {"[1]": {"system": "Zap-70", "test": "Western blot of TCR proximal signaling in CD8 T cells with creatine supplementation", "assay_type": "cell-based, mouse", "conditions": "CrT-WT CD8 T cells; creatine 0.5 mM; anti-CD3 stimulation", "protocol": "CD8 T cells were cultured in vitro in standard T cell culture medium comprising RPMI 1640 (Cat #10040, Corning), 10% FBS (Cat #F2442, Sigma), 1% Penicillin-Streptomycin-Glutamine (Cat #10378016, Gibco), 1% MEM Non-Essential Amino Acids Solution (Cat #11140050, Gibco), 1% HEPES (Cat #15630080, Gibco), 1% Sodium Pyruvate (100 mM) (Cat #11360070, Gibco), and 0.05 mM β -Mercaptoethanol (Cat #M3148, Sigma). Unless otherwise indicated, cells were seeded at 0.5×10^6 cells per well in 24-well plates and stimulated with plate-bound anti-CD3 (5 μg/ml) (clone 145-2C11), for up to 5 days. At indicated time point(s), cells were collected and analyzed for CrT mRNA expression using qPCR, for cell proliferation through cell counting, for viability through Annexin V/7-AAD staining followed by flow cytometry analysis, for surface activation marker (CD25) expression through surface staining followed by flow cytometry analysis, for effector molecule (Granzyme B, IL-2, and IFN-γ) production through intracellular staining followed by flow cytometry analysis, and for cytokine (IL-2 and IFN-γ) secretion through collecting cell culture supernatants followed by ELISA analysis. CrT protein expression and TCR signaling events were analyzed using western blot analysis. […]"}, "[2]": {"system": "MC38 colon cancer", "test": "MC38 colon cancer model, creatine supplementation and anti-PD-1 treatment", "assay_type": "in vivo, mouse", "conditions": "MC38 (CrT-negative); creatine supplementation alone", "protocol": "To establish solid tumors, mice were s.c. injected above the right flank with 1×10^6 B16-OVA or 3×10^5 MC38 cells. Before injection, cells in log phase of growth were harvested and suspended in phosphate-buffered saline (PBS), and 50 μl of cell suspension were injected subcutaneously above the flank. Tumor size was periodically measured with a digital Vernier caliper (Thermo Fisher Scientific). For creatine supplementation via i.p. injection, […] monohydrate (cat #C3630, Sigma-Aldrich) was dissolved in sterile PBS and i.p. injected to experimental animals daily at a dose of 10.5 mg per animal per injection. To study the combination effects of creatine supplementation and PD-1/PD-L1 blockade treatment, B6 mice were inoculated with MC38 tumor cells and monitored for tumor growth; experimental mice also received i.p. supplement of creatine, as well as i.p. injection of an anti-PD-1 blocking antibody (clone RMP1-14; 300 μg/mouse/injection, twice per week) or an isotype control antibody (clone 2A3; 300 μg/mouse/injection, twice per week), alone or in combination. Tumor-free mice were maintained for three months, then challenged with MC38 tumor cells again and monitored for tumor recurrence over another 6-month period."}, "[3]": {"system": "skeletal muscle fibers", "test": "Histological analysis of skeletal muscle (H&E, muscle-fiber diameter)", "assay_type": "in vivo, mouse", "conditions": "mice receiving creatine supplements (i.p. or food); biceps femoris", "protocol": "Skeletal muscle (biceps femoris) harvested from control (Ctrl) and experimental (Creatine ip and Creatine food) mice were fixed in 10% neutral-buffered formalin and embedded in paraffin for sectioning (5-μm thickness), followed by H&E staining using standard procedures (UCLA Translational Pathology Core Laboratory). The sections were imaged using an Olympus BX51 upright microscope equipped with a Macrofire® CCD camera (Optronics®). The muscle-fiber diameter was assessed with the use of an ImageJ software (NIH)."}, "[4]": {"conditions": "humans (Kreider et al., 2017); cited from earlier work"}},
  "data": [
    {"smiles": "CN(CC(=O)O)C(=N)N", "note": "[creatine]", "values": [
      {"measurement": "Zap-70 phosphorylation", "setting": "[1]", "value": "significantly increased"},
      {"measurement": "tumor suppression", "setting": "[2]", "value": "tumor suppression benefits"},
      {"measurement": "skeletal muscle fiber size", "setting": "[3]", "value": "enlargement of skeletal muscle fibers"},
      {"measurement": "safety of long-term supplementation", "setting": "[4]", "value": "well-documented safety"}
    ]}
  ]
}
